Assay results as given in the NIST ThermoML archive (doi:10.1021/je900550v).
Numbers after ± are expanded uncertainties.

Settings: 101.33 kPa, Liquid; for speed of sound: Pulse-echo method; for mass density: Vibrating tube method

CCC(=O)[O-].C[NH2+]CCO [2-hydroxy-N-methylethanaminium propionate]
speed of sound (278.15 K): 1752.4 ± 2.2 m/s
mass density (278.15 K): 1084.28 ± 2.2 kg/m3
speed of sound (278.4 K): 1751.6 ± 2.2 m/s
mass density (278.4 K): 1084.12 ± 2.2 kg/m3
speed of sound (278.65 K): 1750.7 ± 2.2 m/s
mass density (278.65 K): 1083.96 ± 2.2 kg/m3
speed of sound (278.9 K): 1749.8 ± 2.2 m/s
mass density (278.9 K): 1083.8 ± 2.2 kg/m3
speed of sound (279.15 K): 1749 ± 2.2 m/s
mass density (279.15 K): 1083.63 ± 2.2 kg/m3
speed of sound (279.4 K): 1748.1 ± 2.2 m/s
mass density (279.4 K): 1083.47 ± 2.2 kg/m3
speed of sound (279.65 K): 1747.3 ± 2.2 m/s
mass density (279.65 K): 1083.31 ± 2.2 kg/m3
speed of sound (279.9 K): 1746.5 ± 2.2 m/s
mass density (279.9 K): 1083.15 ± 2.2 kg/m3
speed of sound (280.15 K): 1745.6 ± 2.2 m/s
mass density (280.15 K): 1082.98 ± 2.2 kg/m3
speed of sound (280.4 K): 1744.8 ± 2.2 m/s
mass density (280.4 K): 1082.82 ± 2.2 kg/m3
speed of sound (280.65 K): 1744 ± 2.2 m/s
mass density (280.65 K): 1082.66 ± 2.2 kg/m3
speed of sound (280.9 K): 1743.1 ± 2.2 m/s
mass density (280.9 K): 1082.5 ± 2.2 kg/m3
speed of sound (281.15 K): 1742.3 ± 2.2 m/s
mass density (281.15 K): 1082.34 ± 2.2 kg/m3
speed of sound (281.4 K): 1741.5 ± 2.2 m/s
mass density (281.4 K): 1082.18 ± 2.2 kg/m3
speed of sound (281.65 K): 1740.7 ± 2.2 m/s
mass density (281.65 K): 1082.02 ± 2.2 kg/m3
speed of sound (281.9 K): 1739.8 ± 2.2 m/s
mass density (281.9 K): 1081.86 ± 2.2 kg/m3
speed of sound (282.15 K): 1739 ± 2.2 m/s
mass density (282.15 K): 1081.69 ± 2.2 kg/m3
speed of sound (282.4 K): 1738.2 ± 2.2 m/s
mass density (282.4 K): 1081.53 ± 2.2 kg/m3
speed of sound (282.65 K): 1737.4 ± 2.2 m/s
mass density (282.65 K): 1081.37 ± 2.2 kg/m3
speed of sound (282.9 K): 1736.6 ± 2.2 m/s
mass density (282.9 K): 1081.21 ± 2.2 kg/m3
speed of sound (283.15 K): 1735.8 ± 2.2 m/s
mass density (283.15 K): 1081.05 ± 2.2 kg/m3
speed of sound (283.4 K): 1735 ± 2.2 m/s
mass density (283.4 K): 1080.88 ± 2.2 kg/m3
speed of sound (283.65 K): 1734.2 ± 2.2 m/s
mass density (283.65 K): 1080.72 ± 2.2 kg/m3
speed of sound (283.9 K): 1733.4 ± 2.2 m/s
mass density (283.9 K): 1080.56 ± 2.2 kg/m3
speed of sound (284.15 K): 1732.6 ± 2.2 m/s
mass density (284.15 K): 1080.39 ± 2.2 kg/m3
speed of sound (284.4 K): 1731.8 ± 2.2 m/s
mass density (284.4 K): 1080.23 ± 2.2 kg/m3
speed of sound (284.65 K): 1731 ± 2.2 m/s
mass density (284.65 K): 1080.07 ± 2.2 kg/m3
speed of sound (284.9 K): 1730.2 ± 2.2 m/s
mass density (284.9 K): 1079.91 ± 2.2 kg/m3
speed of sound (285.15 K): 1729.4 ± 2.2 m/s
mass density (285.15 K): 1079.75 ± 2.2 kg/m3
speed of sound (285.4 K): 1728.5 ± 2.2 m/s
mass density (285.4 K): 1079.59 ± 2.2 kg/m3
speed of sound (285.65 K): 1727.8 ± 2.2 m/s
mass density (285.65 K): 1079.42 ± 2.2 kg/m3
speed of sound (285.9 K): 1727 ± 2.2 m/s
mass density (285.9 K): 1079.25 ± 2.2 kg/m3
speed of sound (286.15 K): 1726.2 ± 2.2 m/s
mass density (286.15 K): 1079.09 ± 2.2 kg/m3
speed of sound (286.4 K): 1725.5 ± 2.2 m/s
mass density (286.4 K): 1078.93 ± 2.2 kg/m3
speed of sound (286.65 K): 1724.7 ± 2.2 m/s
mass density (286.65 K): 1078.76 ± 2.2 kg/m3
speed of sound (286.9 K): 1723.9 ± 2.2 m/s
mass density (286.9 K): 1078.6 ± 2.2 kg/m3
speed of sound (287.15 K): 1723.1 ± 2.2 m/s
mass density (287.15 K): 1078.44 ± 2.2 kg/m3
speed of sound (287.4 K): 1722.4 ± 2.2 m/s
mass density (287.4 K): 1078.28 ± 2.2 kg/m3
speed of sound (287.65 K): 1721.6 ± 2.2 m/s
mass density (287.65 K): 1078.11 ± 2.2 kg/m3
speed of sound (287.9 K): 1720.8 ± 2.2 m/s
mass density (287.9 K): 1077.95 ± 2.2 kg/m3
viscosity (288.15 K): 432.13 ± 63 mPa·s
speed of sound (288.15 K): 1720 ± 2.2 m/s
mass density (288.15 K): 1077.79 ± 2.2 kg/m3
speed of sound (288.4 K): 1719.3 ± 2.2 m/s
mass density (288.4 K): 1077.62 ± 2.2 kg/m3
speed of sound (288.65 K): 1718.5 ± 2.2 m/s
mass density (288.65 K): 1077.46 ± 2.2 kg/m3
speed of sound (288.9 K): 1717.7 ± 2.2 m/s
mass density (288.9 K): 1077.3 ± 2.2 kg/m3
speed of sound (289.15 K): 1717 ± 2.2 m/s
mass density (289.15 K): 1077.13 ± 2.2 kg/m3
speed of sound (289.4 K): 1716.2 ± 2.2 m/s
mass density (289.4 K): 1076.97 ± 2.2 kg/m3
speed of sound (289.65 K): 1715.4 ± 2.2 m/s
mass density (289.65 K): 1076.81 ± 2.2 kg/m3
speed of sound (289.9 K): 1714.7 ± 2.2 m/s
mass density (289.9 K): 1076.64 ± 2.2 kg/m3
speed of sound (290.15 K): 1713.9 ± 2.2 m/s
mass density (290.15 K): 1076.48 ± 2.2 kg/m3
speed of sound (290.4 K): 1713.2 ± 2.2 m/s
mass density (290.4 K): 1076.31 ± 2.2 kg/m3
viscosity (290.65 K): 359.06 ± 48 mPa·s
speed of sound (290.65 K): 1712.4 ± 2.2 m/s
mass density (290.65 K): 1076.15 ± 2.2 kg/m3
speed of sound (290.9 K): 1711.6 ± 2.2 m/s
mass density (290.9 K): 1075.98 ± 2.2 kg/m3
speed of sound (291.15 K): 1710.9 ± 2.2 m/s
mass density (291.15 K): 1075.82 ± 2.2 kg/m3
speed of sound (291.4 K): 1710.1 ± 2.2 m/s
mass density (291.4 K): 1075.65 ± 2.2 kg/m3
speed of sound (291.65 K): 1709.3 ± 2.2 m/s
mass density (291.65 K): 1075.49 ± 2.2 kg/m3
speed of sound (291.9 K): 1708.6 ± 2.2 m/s
mass density (291.9 K): 1075.33 ± 2.2 kg/m3
speed of sound (292.15 K): 1707.8 ± 2.2 m/s
mass density (292.15 K): 1075.16 ± 2.2 kg/m3
speed of sound (292.4 K): 1707.1 ± 2.2 m/s
mass density (292.4 K): 1075 ± 2.2 kg/m3
speed of sound (292.65 K): 1706.4 ± 2.2 m/s
mass density (292.65 K): 1074.83 ± 2.2 kg/m3
speed of sound (292.9 K): 1705.6 ± 2.2 m/s
mass density (292.9 K): 1074.67 ± 2.2 kg/m3
viscosity (293.15 K): 301.63 ± 37 mPa·s
speed of sound (293.15 K): 1704.9 ± 2.2 m/s
